{"source": "patent US9775902B2", "about": "“Compounds and methods for treatment of stroke” (FIBROGEN, INC, priority 2006, dated 2017)", "key": {"erythropoietin (EPO)": {"system": "erythropoietin (EPO)", "experiment": "EPO expression in Hep3B cells (QUANTIKINE immunoassay of conditioned media)", "type": "cell-based, Human", "conditions": "for Fold Increase Over Control: EPO, vs 1% DMSO control; for EPO: conditioned media after overnight incubation with compound", "how_it_was_run": "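Confluent Hep3B cells were switched to OPTI-MEM for about 24 h (20% O2, 5% CO2, 37 °C), then treated overnight with compound or 1% DMSO vehicle. EPO secreted into the conditioned medium was measured by QUANTIKINE immunoassay.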"}, "[1]": {"system": "vascular endothelial growth factor (VEGF)", "experiment": "VEGF expression in Kelly neuroblastoma cells", "type": "cell-based", "conditions": "for VEGF: conditioned media after overnight incubation", "how_it_was_run": "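Kelly neuroblastoma cells treated overnight with compound, 1% DMSO as negative control. EPO and VEGF secreted into conditioned media measured by QUANTIKINE immunoassay.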"}, "erythropoietin": {"system": "erythropoietin", "experiment": "Plasma EPO in mice after intravenous injection", "type": "in vivo, Swiss Webster mice", "conditions": "mouse plasma, 20 mg/kg i.v., four hours after injection; for fold induction at 20 mg/kg: iv, 4 h, read-out: EPO Fold Increase; for EPO: mouse EPO ELISA kit (**)", "how_it_was_run": "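Male Swiss Webster mice (29-34 g) received 20 mg/kg compound or vehicle by tail-vein injection in 5% dextrose with equimolar NaOH or meglumine. Plasma was collected 4 h later, and EPO and VEGF were measured by ELISA.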"}, "[2]": {"system": "Wistar rats, transient occlusion of the middle cerebral artery", "experiment": "Rat model of transient middle cerebral artery occlusion (tMCAO): infarct volume and edema at 48 hours", "type": "in vivo", "description": "The effect of compounds of the present invention on infarct volume and edema was examined in an animal model of ischemic stroke. For these studies, male Wistar rats (320 g) were subjected to transient occlusion of the middle cerebral artery. Rats were anesthetized with 3% isoflurane in oxygen. Aseptic technique was used for all procedures during these studies. The surgical site was clipped and cleaned with alcohol and surgical scrub. Each animal was placed on a warm water heating pad to maintain body temperature. A paramedian incision was made on the neck over the carotid artery. The tissue was bluntly dissected away to reveal the carotid artery and the carotid artery bifurcation. Sutures were placed around the proximal portion of the common carotid and the external carotid arteries and were then tied off. An incision was made in the common carotid, distal to the ligation and a pre-prepared filament (3-0 monofilament suture or like material) was placed in the carotid and advanced into the internal carotid artery. The filament was advanced approximately 20 millimeters past the carotid bifurcation until slight resistance was felt as it wedged inside the middle cerebral artery (MCA). Care was taken to not rupture the artery upon insertion of the filament. The filament was tied in place and the skin incision closed. At this time isoflurane was discontinued and the animals were allowed to awaken.\nOne hour after surgery, the success of MCA occlusion was assessed using the Bederson scale, as previously described. (See Bederson et al., (1986) Stroke, 17:1304-1308.) Sixty minutes after occlusion, the animals were re-anesthetized for reperfusion. The skin incision was reopened and the filament was carefully withdrawn from the MCA but not completely removed. Body temperature was taken every 15 minutes throughout the study to maintain normothermia. Animals that have undergone the MCA occlusion procedure may have difficulty in thermoregulation for a few hours after surgery. Animals were placed in a cooling or heating box as determined by their body temperature. Body temperature was maintained at 37.5° C.\nVarious compounds of the present invention were administered by oral gavage (p.o.) at reperfusion or at reperfusion and again at 24 hours after reperfusion in 0.5% CMC and 0.1% Polysorbate 80 at various doses (see Table 10 below). Forty-eight hours after MCA occlusion animals were euthanized with CO2 and their brains removed. After removal, the brain was sliced into 7 coronal sections, 2 mm thick. The sections were placed rostral side down in a petri dish and stained with 1% Triphenyl tetrazolium chloride for 20 minutes at 37° C. for determination of infarct volume. Brain sections were then digitally photographed and analyzed for changes in infarct volume and extent of edema. Infarct volumes were determined by measuring the infarcted (i.e., non-stained) areas of each brain section and multiplying this value by the section thickness. Extent of edema was determined by the net increase in volume of the ipsilateral cortex compared to that of the contralateral cortex of brain sections."}, "[3]": {"conditions": "1 Dose 60 mg/kg p.o. at reperfusion"}, "[4]": {"conditions": "2 Doses 60 mg/kg p.o., at reperfusion and 24 hours later"}, "[5]": {"conditions": "p.o. 60 mg/kg at reperfusion, 48 hours after MCA occlusion"}, "[6]": {"conditions": "p.o. 6 mg/kg at reperfusion, 48 hours after MCA occlusion"}}, "data": [{"smiles": "COc1ccc(Oc2ccc3c(O)c(C(=O)NCC(=O)O)ncc3c2)cc1", "note": "[Compound F, {[4-Hydroxy-7-(4-methoxy-phenoxy)-isoquinoline-3-carbonyl]-amino}-acetic acid]", "values": [{"measurement": "Fold Increase Over Control", "setting": "erythropoietin (EPO)", "result": 3.0}, {"measurement": "EPO", "setting": "erythropoietin (EPO)", "result": 369.4, "unit": "mIU/ml"}, {"measurement": "VEGF Fold Increase", "setting": "[1]", "result": 16.2}, {"measurement": "VEGF", "setting": "[1]", "result": 2564.9, "unit": "pg/mL"}, {"measurement": "fold induction at 20 mg/kg", "setting": "erythropoietin", "result": 254}, {"measurement": "EPO", "setting": "erythropoietin", "result": 2283, "unit": "pg/mL"}, {"measurement": "Percent Reduction in Edema", "setting": "[2]; [3]", "result": 28, "unit": "%"}, {"measurement": "Percent Reduction in Infarct Volume", "setting": "[2]; [3]", "result": 42, "unit": "%"}, {"measurement": "Percent Reduction in Edema", "setting": "[2]; [4]", "result": 39, "unit": "%"}, {"measurement": "Percent Reduction in Infarct Volume", "setting": "[2]; [4]", "result": 70, "unit": "%"}, {"measurement": "Percent Reduction in Edema", "setting": "[2]; [5]", "result": 39, "unit": "%"}, {"measurement": "Percent Reduction in Infarct Volume", "setting": "[2]; [5]", "result": 70, "unit": "%"}]}, {"smiles": "N#Cc1nc(C(=O)NCC(=O)O)c(O)c2c(Oc3ccc(F)cc3)cccc12", "note": "[Compound AS, {[1-Cyano-5-(4-fluoro-phenoxy)-4-hydroxy-isoquinoline-3-carbonyl]-amino}-acetic acid]", "values": [{"measurement": "Fold Increase Over Control", "setting": "erythropoietin (EPO)", "result": 10.7}, {"measurement": "EPO", "setting": "erythropoietin (EPO)", "result": 40.5, "unit": "mIU/ml"}, {"measurement": "VEGF Fold Increase", "setting": "[1]", "result": 5.6}, {"measurement": "VEGF", "setting": "[1]", "result": 8197, "unit": "pg/mL"}, {"measurement": "fold induction at 20 mg/kg", "setting": "erythropoietin", "result": 102}, {"measurement": "EPO", "setting": "erythropoietin", "result": 49305, "unit": "pg/mL"}, {"measurement": "Percent Reduction in Edema", "setting": "[2]; [6]", "result": 32, "unit": "%"}, {"measurement": "Percent Reduction in Infarct Volume", "setting": "[2]; [6]", "result": 58, "unit": "%"}]}, {"smiles": "Cc1cccc(C)c1Oc1ccc2c(C#N)nc(C(=O)NCC(=O)O)c(O)c2c1", "note": "[Compound AL, {[1-Cyano-6-(2,6-dimethyl-phenoxy)-4-hydroxy-isoquinoline-3-carbonyl]-amino}-acetic acid]", "values": [{"measurement": "Fold Increase Over Control", "setting": "erythropoietin (EPO)", "result": 13.9}, {"measurement": "EPO", "setting": "erythropoietin (EPO)", "result": 74.8, "unit": "mIU/ml"}, {"measurement": "VEGF Fold Increase", "setting": "[1]", "result": 3.8}, {"measurement": "VEGF", "setting": "[1]", "result": 5499, "unit": "pg/mL"}, {"measurement": "fold induction at 20 mg/kg", "setting": "erythropoietin", "result": 188}, {"measurement": "EPO", "setting": "erythropoietin", "result": 22514, "unit": "pg/mL"}, {"measurement": "Percent Reduction in Edema", "setting": "[2]; [6]", "result": 12, "unit": "%"}, {"measurement": "Percent Reduction in Infarct Volume", "setting": "[2]; [6]", "result": 51, "unit": "%"}]}]}
